Results: patent publication US7776862B2, “Pyridyl and phenyl substituted piperazine-piperidines with CXCR3 antagonist activity” (Schering Corporation, priority 2005, dated 2010)

The molecules below were run against T1, human CXCR3 (N-delta 4) (Homo sapiens, UniProt P49682) (assay: Human CXCR3 (N-delta 4) scintillation proximity assay (SPA), [125I] IP-10 binding). Details: IC50 rating; Ba/F3-hCXCR3 (N-delta 4) membranes, 25 pM [125I] IP-10.
T1 construct: CD8 leader; Flag tag; expressed in transfected cells; membranes used
T1 sequence (P49682 5-368 limits assumed): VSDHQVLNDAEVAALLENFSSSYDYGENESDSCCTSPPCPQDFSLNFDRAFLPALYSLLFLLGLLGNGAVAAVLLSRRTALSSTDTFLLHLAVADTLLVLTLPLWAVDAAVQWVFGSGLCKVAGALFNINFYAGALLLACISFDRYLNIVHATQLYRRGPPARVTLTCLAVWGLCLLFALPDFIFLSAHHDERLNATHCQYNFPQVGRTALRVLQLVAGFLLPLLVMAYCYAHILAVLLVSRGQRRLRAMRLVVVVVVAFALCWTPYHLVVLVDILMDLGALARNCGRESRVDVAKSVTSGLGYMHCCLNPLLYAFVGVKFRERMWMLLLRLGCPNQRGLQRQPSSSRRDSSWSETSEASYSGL
Summary of the method: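 IP-10 and compound titrations added together. The receptor source was SPA beads bearing membranes from Ba/F3 cells transfected with human CXCR3 (N-delta 4) carrying a CD8 leader and Flag tag.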

IC50, < 25 nM:
CC[C@H]1CN(c2ncc(CNC(=O)NC3CC3)cc2Cl)CCN1C1CCN(Cc2ccc(Br)cc2F)CC1 [compound 367]
CCNC(=O)NCc1cnc(N2CCN(C3CCN(Cc4ccc(Cl)cc4F)CC3)[C@@H](CC)C2)c(Cl)c1 [compound 368]
CC[C@H]1CN(c2ncc(CNC(=O)NCC(F)(F)F)cc2Cl)CCN1C1CCN(Cc2ccc(Cl)cc2F)CC1 [compound 369]
CC[C@H]1CN(c2ncc(CNC(=O)NC(C)C)cc2Cl)CCN1C1CCN(Cc2ccc(Cl)cc2F)CC1 [compound 370]
CC[C@H]1CN(c2ncc(CNC(=O)NCC(F)(F)F)cc2Cl)CCN1C1CCN(Cc2ccc(Br)cc2F)CC1 [compound 371]
CC[C@H]1CN(c2ncc(CNC(=O)NC3CC3)cc2Cl)CCN1C1CCN(Cc2ccc(Cl)cc2F)CC1 [compound 372]
CC[C@H]1CN(c2ncc(CNC(=O)NC(C)(C)C)cc2Cl)CCN1C1CCN(Cc2ccc(Cl)cc2F)CC1 [compound 373]
CC[C@H]1CN(c2ncc(CNC(=S)NC3CC3)cc2Cl)CCN1C1CCN(Cc2ccc(Cl)cc2F)CC1 [compound 374]
CC[C@H]1CN(c2ncc(CO)cc2Cl)CCN1C1CCN(Cc2ccc(Br)cc2)CC1 [compound 375]
CC[C@H]1CN(c2ncc(CNC(N)=O)cc2Cl)CCN1C1CCN(Cc2ccc(Br)cc2F)CC1 [compound 376]
CC[C@H]1CN(c2ncc(CNC(=O)NC)cc2Cl)CCN1C1CCN(Cc2ccc(Cl)cc2F)CC1 [compound 377]
CC[C@H]1CN(c2ncc(CNS(C)(=O)=O)cc2Cl)CCN1C1CCN(Cc2ccc(Br)cc2F)CC1 [compound 378]
CC[C@H]1CN(c2ncc(CNC(N)=O)cc2Cl)CCN1C1CCN(Cc2ccc(Cl)cc2F)CC1 [compound 379]
CC[C@H]1CN(c2ncc(CNS(C)(=O)=O)cc2Cl)CCN1C1CCN(Cc2ccc(Cl)cc2F)CC1 [compound 380]
CC[C@H]1CN(c2ncc(CN/C(=N\C#N)NCC(F)(F)F)cc2Cl)CCN1C1CCN(Cc2ccc(Cl)cc2F)CC1 [compound 381]
CCNC(=O)OCc1cnc(N2CCN(C3CCN(Cc4ccc(Cl)cc4F)CC3)[C@@H](CC)C2)c(Cl)c1 [compound 382]
CC[C@H]1CN(c2ncc(CO)cc2Cl)CCN1C1CCN(Cc2ccc(Br)cc2F)CC1 [compound 383]
CC[C@H]1CN(c2ncc(CNS(=O)(=O)N(C)C)cc2Cl)CCN1C1CCN(Cc2ccc(Br)cc2F)CC1 [compound 384]
CCNC(=O)NCc1cnc(N2CCN(C3CCN(Cc4ccc(Cl)cc4)CC3)[C@@H](C)C2)c(Cl)c1 [compound 385]
CC[C@H]1CN(c2ncc(CNS(=O)(=O)CC)cc2Cl)CCN1C1CCN(Cc2ccc(Cl)cc2F)CC1 [compound 386]
CC[C@H]1CN(c2ncc(CNC(C)=O)cc2Cl)CCN1C1CCN(Cc2ccc(Cl)cc2F)CC1 [compound 387]
CCCS(=O)(=O)NCc1cnc(N2CCN(C3CCN(Cc4ccc(Cl)cc4F)CC3)[C@@H](CC)C2)c(Cl)c1 [compound 388]
CC[C@H]1CN(c2ncc(CN/C(N)=N\C#N)cc2Cl)CCN1C1CCN(Cc2ccc(Cl)cc2F)CC1 [compound 389]
CC[C@H]1CN(c2ncc(CNC(=O)NC3CCCCC3)cc2Cl)CCN1C1CCN(Cc2ccc(Cl)cc2F)CC1 [compound 390]
CC[C@H]1CN(c2ncc(CNS(=O)(=O)N(C)C)cc2Cl)CCN1C1CCN(Cc2ccc(Cl)cc2F)CC1 [compound 391]
CC[C@H]1CN(c2ncc(CO)cc2Cl)CCN1C1CCN(Cc2ccc(Cl)cc2F)CC1 [compound 392]
CC[C@H]1CN(c2ncc(CNC)cc2Cl)CCN1C1CCN(Cc2ccc(Cl)cc2F)CC1 [compound 393]
CC[C@H]1CN(c2ncc(CNC(=N)N)cc2Cl)CCN1C1CCN(Cc2ccc(Cl)cc2F)CC1 [compound 394]
CC[C@H]1CN(c2ncc(CNC3CC3)cc2Cl)CCN1C1CCN(Cc2ccc(Cl)cc2F)CC1 [compound 395]
CC[C@H]1CN(c2ncc(CNC(=O)NCC(F)(F)F)cc2Cl)CCN1C1CCN(C(=O)c2ccc(Br)cc2)CC1 [compound 396]
CCNC(=O)NCc1cnc(N2CCN(C3CCN(Cc4ccc(Cl)cc4)CC3)[C@@H](CC)C2)c(Cl)c1 [compound 397]
CC[C@H]1CN(c2ncc(CNC(=O)Nc3ccc(F)c(F)c3)cc2Cl)CCN1C1CCN(Cc2ccc(Cl)cc2)CC1 [compound 400]
CC[C@H]1CN(c2ncc(CNC(=O)NN)cc2Cl)CCN1C1CCN(Cc2ccc(Cl)cc2F)CC1 [compound 401]
CC[C@H]1CN(c2ncc(COC(=O)Nc3c(C)noc3C)cc2Cl)CCN1C1CCN(Cc2ccc(Cl)cc2F)CC1 [compound 402]
CC[C@H]1CN(c2ncc(CN/C(=N\C#N)NC)cc2Cl)CCN1C1CCN(Cc2ccc(Cl)cc2F)CC1 [compound 403]
CC[C@H]1CN(c2ncc(C(N)=NO)cc2Cl)CCN1C1CCN(Cc2ccc(Cl)cc2F)CC1 [compound 404]

IC50, > 100 nM:
N#Cc1ccc(CN2CCC(N3CCN(c4ncc(C(=O)NCCOc5ccccc5)cc4Cl)CC3)CC2)cc1 [compound 338]
CCNC(=O)c1cnc(N2CCN(C3CCN(C(CC)c4ccc(Cl)cc4)CC3)[C@@H](C)C2)c(Cl)c1 (some centres unmarked) [compound 339]
CCOC(CNC(=O)c1cnc(N2CCN(C3CCN(Cc4ccc(Cl)cc4)CC3)[C@@H](C)C2)c(Cl)c1)OCC [compound 340]
CNC(=O)c1cnc(N2CCN(C3CCN(Cc4c(F)cc(F)cc4F)CC3)[C@@H](C)C2)c(Cl)c1 [compound 341]
CC[C@H]1CN(c2ncc(C(=O)NN)cc2Cl)CCN1C1CCN(C(=O)c2ccc(Br)cc2)CC1 [compound 342]
CC[C@H]1CN(c2ncc(C(=O)N(C)OC)cc2Cl)CCN1C1CCN(Cc2ccc(Cl)cc2F)CC1 [compound 343]
CCNC(=O)c1cnc(N2CCN(C3CCN([C@@H](CC)c4ccc(Cl)cc4)CC3)[C@@H](C)C2)c(Cl)c1 [compound 344]
COc1ccc(CNC(=O)c2cnc(N3CCN(C4CCN(Cc5ccc(C#N)cc5)CC4)CC3)c(Cl)c2)cc1 [compound 345]
O=C(NCc1ccc(F)c(F)c1)c1cnc(N2CCN(C3CCN(CCOc4ccc(F)cc4)CC3)CC2)c(Cl)c1 [compound 346]
CC[C@H]1CN(c2ncc(C(=O)NNC(N)=O)cc2Cl)CCN1C1CCN(Cc2ccc(Cl)cc2F)CC1 [compound 347]
C[C@H]1CN(c2ncc(C(=O)N3CCC3)cc2Cl)CCN1C1CCN(Cc2ccc(Cl)cc2)CC1 [compound 348]
CNC(=O)c1cnc(N2CCN(C3CCN(Cc4ccccc4Cl)CC3)[C@@H](C)C2)c(Cl)c1 [compound 349]
CC[C@H]1CN(c2ncc(C(=O)N=C(N)N)cc2Cl)CCN1C1CCN(Cc2ccc(Br)cc2F)CC1 [compound 350]
O=C(NCc1ccc(F)c(F)c1)c1cnc(N2CCN(C3CCN(C(=O)c4ccc(Cl)c(Cl)c4)CC3)CC2)c(Cl)c1 [compound 351]
CNC(=O)c1cnc(N2C[C@H](C)N(C3CCN(Cc4ccc(Cl)cc4F)CC3)C[C@H]2C)c(Cl)c1 [compound 352]
O=C(Nc1ccc(Cl)cn1)c1cnc(N2CCN(C3CCN(Cc4ccc(Cl)cc4)CC3)CC2)c(Cl)c1 [compound 353]
CNC(=O)c1cnc(N2CCN(C3CCN(Cc4ccc(F)cc4S(=O)(=O)N(C)c4ccc(Cl)cc4)CC3)[C@@H](C)C2)c(Cl)c1 [compound 354]
C[C@H]1CN(c2ncc(C(=O)N3CCCCC3)cc2Cl)CCN1C1CCN(Cc2ccc(Cl)cc2)CC1 [compound 355]
CC[C@H]1CN(c2ncc(C(=O)NC)cc2Cl)CCN1C1CCN(C2c3ccc(Cl)cc3CCc3cccnc32)CC1 (some centres unmarked) [compound 356]
C=CCNc1c(C(N)=O)cnc(N2CCN(C3CCN(Cc4ccc(Cl)cc4F)CC3)[C@@H](CC)C2)c1Cl [compound 357]
O=C(NCc1cccnc1)c1cnc(N2CCN(C3CCN(Cc4ccc(Cl)cc4)CC3)CC2)c(Cl)c1 [compound 358]
CNC(=O)c1cnc(N2CCN(C3CCN(/C(=N\C#N)c4ccc(Cl)cc4)CC3)[C@@H](C)C2)c(Cl)c1 [compound 359]
CNC(=O)c1cnc(N2CCN(C3CCN(Cc4c(C)cccc4C)CC3)[C@@H](C)C2)c(Cl)c1 [compound 360]
CNC(=O)c1cnc(N2CCN(C3CCN(C(=O)c4cc5cc(Cl)ccc5[nH]4)CC3)[C@@H](C)C2)c(Cl)c1 [compound 361]
O=C(NCc1ccc(F)c(F)c1)c1cnc(N2CCN(C3CCN(Cc4ccccc4)CC3)CC2)c(Cl)c1 [compound 362]
CC[C@H]1CN(c2ncc(C(=O)NC)c3ccccc23)CCN1C1CCN(Cc2ccc(Cl)cc2F)CC1 [compound 363]
O=C(NCCc1c[nH]c2ccccc12)c1cnc(N2CCN(C3CCN(Cc4ccc(Cl)cc4)CC3)CC2)c(Cl)c1 [compound 364]
CC[C@H]1CN(c2ncc(C(=O)NCc3ccc(F)c(F)c3)cc2Cl)CCN1C1CCN(C)CC1 [compound 365]
CNC(=O)c1cnc(N2CCN(C3CCN(Cc4c(F)cccc4F)CC3)[C@@H](C)C2)c(Cl)c1 [compound 366]
